“Also recorded” adds a separate entry of the source. Non-standard residues stand in square brackets, D forms with d. Residues, ends and D or L forms follow the SMILES beside them. No end group written: not given here. Hyp = O=C(O)[C@@H]1C[C@@H](O)CN1; aThr = C[C@H](O)[C@H](N)C(=O)O
Legend:
[1] = test system: West Nile virus (WNV); test: WNV replication in Vero cells by viral foci assay; assay type: cell-based; settings: 100 μM
Text: To exclude such possibilities, we tested the ability of any of the 4 active compounds plus one negative control compound to suppress the replication of West Nile virus (WNV), an RNA virus of the unrelated flavivirus family. […] Together, our experiments confirmed compounds ZINC000008077555, ZINC000230464020, ZINC000006623878, and ZINC000085876900 as specific inhibitors of SARS-CoV-2 replication but not interfering with the host cell.
The number of infectious SARS-CoV-2 virions was quantified by viral plaque assay. To this end, Vero cells were incubated with SARS-CoV-2 for 2 hrs and subsequently overlaid with 1% methylcellulose in culture medium. After 3-4 days, the cells were fixed in 10% formalin for 30 min, washed under tap water, and stained with crystal violet. The number of plaques corresponding to infections of individual cells by single virions was counted on a light table. The quantification of infectious WNV virions was performed similarly with the exception that the number of infected cell foci was determined by intracellular staining using a biotinylated anti-WNV-E antibody (clone E16), followed by an HRP-labeled anti-streptavidin antibody. HRP activity was detected with KPL Trueblue substrate (SeraCare).
Viral replication of SARS-CoV-2 in the presence of Mpro inhibitors was measured in Vero or Calu-3 cells in three ways. […] The virus-induced cytopathic effect was measured by determining the fraction of formalin-fixed adherent cells that remained after 3 days (Vero cells) or 4 days (Calu-3 cells). To this end, the cells were stained with crystal violet, PBS-washed, and air-dried. Following resuspension in methanol, crystal violet staining was measured in the spectrophometer at OD594. Cytotoxicity of the compounds was measured in parallel by the staining of uninfected cells incubated with the […]. In a second approach, drug activity was determined in Vero cells directly by viral plaque assay, using between 100-500 Pfu/well of virus and indicated concentrations of Mpro inhibitors. In a third approach, Vero cells were infected with SARS-CoV-2 or WNV at an MOI of 0.01 in the presence of […] of Mpro inhibitors for 2-3 days. Viral replication was measured indirectly at indicated time points by quantifying the titers of infectious virions in the supernatants with viral plaque or foci assays in the absence of the compounds. Viral replication in Calu-3 cells in the presence of indicated concentrations of compounds was determined similarly.

[2] = test system: SARS-CoV-2; assay type: cell-based
[3] = test system: SARS-CoV-2; test: Cytopathic effect (CPE) assay in Vero cells with P-gp inhibitor CP-100356; assay type: cell-based; settings: for EC50: Severe acute respiratory syndrome coronavirus 2, read-out: EC50 of inhibition of virus-induced CPE
[4] = test system: type I IFNs, ISGs, proinflammatory cytokines; assay type: cell-based, human; settings: for type I IFNs, proinflammatory cytokines and ISGs in infected cells: cell line not given
[5] = test system: Vero cells; settings: 100 μM, with 2 μM CP-100356
Experimental: Vehicle-treated cells served as controls. The amounts of infectious virions in the cell supernatants were determined 2 days later by viral plaque assay.

[6] = test system: SARS-CoV-2; test: Viral reduction plaque assay in Vero cells; assay type: cell-based; design: key to Inhibition of Infection: ++: Validated strong inhibitor; +/−: Validated modest inhibitor; −: Validated no effect; settings: for number of infected cells compared to positive control: Vero cells, increasing concentrations, 4 days; for Inhibition of Infection: in-vitro experiments, SARS-CoV2

In the case of `COc1ccc(-c2coc3c4c(cc(O)c3c2=O)OC(=O)C[C@@H]4c2ccc(OCC(N)=O)cc2)cc1` [ZINC000085876900, 2-[4-[(10R)-5-hydroxy-3-(4-methoxyphenyl)-4,8-dioxo-9,10-dihydropyrano[2,3-h]chromen-10-yl]phenoxy]acetamide], the “replication of WNV” value [1] is reported as “did not significantly restrict replication of WNV; also recorded: do not impact WNV replication”, the “SARS-CoV-2 replication (viral titers in culture medium)” value [2] is reported as “suppress SARS-CoV-2 replication” and the “suppression of SARS-CoV-2 replication, post-treatment” value (from here on “suppression … post-treatment”) [2] is reported as “significant suppression”. The “suppression of SARS-CoV-2 replication, pre-treatment” value (shortened to “suppression … pre-treatment”) [2] was “significant suppression”, the “suppression of viral replication” value [2] was “approximately 10 fold” and the EC50 [3] was 4.6 to 22.6 µM. For the same compound, the “expression of type I IFNs, ISGs and proinflammatory cytokines vs cells infected without compound” value [4] was “significantly higher expression”, the “type I IFNs, proinflammatory cytokines and ISGs in infected cells” value (shortened to “type I IFNs … in infected cells”) [4] was “enhance” and the toxicity [5] was “toxic”. The “number of infected cells compared to positive control” value (from here on “number … compared to positive control”) [6] was “significant drop”.

“RYLGYL [ZINC000097972782, (2S)-2-[[(2S)-2-[[2-[[(2S)-2-[[(2S)-2-[[(2S)-2-amino-5-(diaminomethylideneamino)pentanoyl]amino]-3-(4-hydroxyphenyl)propanoyl]amino]-4-methylpentanoyl]amino]acetyl]amino]-3-(4-hydroxyphenyl)propanoyl]amino]-4-methylpentanoic acid]” was tested, and the “Inhibition of Infection” value [6] was “−”.

In the case of `CC(C)n1[nH]c(=O)c2c(-c3ccc(O)c(O)c3)c3oc4c(O)c(=O)ccc4c3[nH]c21` [ZINC000085879857, 10-(3,4-dihydroxyphenyl)-6-hydroxy-14-propan-2-yl-8-oxa-13,14,16-triazatetracyclo[7.7.0.02,7.011,15]hexadeca-1,3,6,9,11(15)-pentaene-5,12-dione], the “Inhibition of Infection” value [6] is reported as “−”.

With `C[C@H](NC(=O)[C@H](N)Cc1ccc(O)cc1)C(=O)N[C@H](Cc1ccccc1)C(=O)N1C[C@H](O)C[C@H]1C(=O)N[C@@H](Cc1ccc(O)cc1)C(N)=O` [ZINC000644163977, (2S,4R)-N-[(2S)-1-amino-3-(4-hydroxyphenyl)-1-oxopropan-2-yl]-1-[(2R)-2-[[(2S)-2-[[(2R)-2-amino-3-(4-hydroxyphenyl)propanoyl]amino]propanoyl]amino]-3-phenylpropanoyl]-4-hydroxypyrrolidine-2-carboxamide] (H-[dY]A[dF][Hyp]Y-NH2) the “SARS-CoV-2 replication (viral titers in culture medium)” value [2] was “did not”, the “activity against virus-induced CPE” value [3] was “negligible activity” and the “number … compared to positive control” value [6] was “modest”. The “Inhibition of Infection” value [6] was “+/−”.

For `COc1cc([C@H](CC(=O)NCCc2ccc(O)c(O)c2)c2c(O)nc3ccccn3c2=O)cc2c1OCCO2` [ZINC000230464020, (3S)-N-[2-(3,4-dihydroxyphenyl)ethyl]-3-(2-hydroxy-4-oxopyrido[1,2-a]pyrimidin-3-yl)-3-(5-methoxy-2,3-dihydro-1,4-benzodioxin-7-yl)propanamide], the “replication of WNV” value [1] was “did not significantly restrict replication of WNV”, the “replication of WNV” value ([1]; listed as ZINC0002304644020) was “do not impact WNV replication” and the “SARS-CoV-2 replication (viral titers in culture medium)” value [2] was “suppress SARS-CoV-2 replication”. The “suppression … post-treatment” value [2] was “significant suppression”, the “suppression … pre-treatment” value [2] was “significant suppression” and the “suppression of viral replication” value [2] was “approximately 10 fold”. For the same compound, the EC50 [3] was 4.6 to 22.6 µM, the “expression of type I IFNs, ISGs and proinflammatory cytokines vs cells infected without compound” value [4] was “significantly higher expression” and the “type I IFNs … in infected cells” value [4] was “enhance”. The “number … compared to positive control” value [6] was “significant drop”.

In the case of `NC(=O)CC[C@H](NC(=O)OCc1ccccc1)C(=O)NCCc1ccc(F)cc1` [ZINC000008077555, benzyl N-[(2S)-5-amino-1-[2-(4-fluorophenyl)ethylamino]-1,5-dioxopentan-2-yl]carbamate], the “replication of WNV” value [1] is reported as “did not significantly restrict replication of WNV”, the “replication of WNV” value ([1]; listed as ZINC00000807555) is reported as “do not impact WNV replication” and the “SARS-CoV-2 replication (viral titers in culture medium)” value [2] is reported as “suppress SARS-CoV-2 replication”. The “suppression of viral replication” value [2] was “approximately 10 fold”, the EC50 [3] was 4.6 to 22.6 µM and the “type I IFNs … in infected cells” value [4] was “enhance”. The “number … compared to positive control” value [6] was “significant drop” and the “Inhibition of Infection” value [6] was “+/−”.

For `Nc1ncnc2c1ncn2[C@@H]1O[C@H](COP(=O)(O)OP(=O)(O)OP(=O)(O)OC[C@@H]2O[C@H](n3cnc4c(N)ncnc43)[C@H](O)[C@@H]2O)[C@H](O)[C@@H]1O` [ZINC000085591448, [[(2S,3S,4R,5S)-5-(6-aminopurin-9-yl)-3,4-dihydroxyoxolan-2-yl]methoxy-hydroxyphosphoryl] [[(2R,3R,4S,5R)-5-(6-aminopurin-9-yl)-3,4-dihydroxyoxolan-2-yl]methoxy-hydroxyphosphoryl] hydrogen phosphate], the “Inhibition of Infection” value [6] was “−”.

`C[C@H](O)[C@H](N)C(=O)N[C@@H](Cc1ccc(O)cc1)C(=O)N[C@@H](CCCCN)C(=O)O` [ZINC000005462364, (2S)-6-amino-2-[[(2S)-2-[[(2S,3S)-2-amino-3-hydroxybutanoyl]amino]-3-(4-hydroxyphenyl)propanoyl]amino]hexanoic acid] (H-[aThr]-Tyr-Lys-OH) was tested, and the “Inhibition of Infection” value [6] was “−”.

With `COc1ccc(CNC(=O)Cc2c(C)c3ccc(O)c(O)c3oc2=O)c(OC)c1` [ZINC000006623878, 2-(7,8-dihydroxy-4-methyl-2-oxochromen-3-yl)-N-[(2,4-dimethoxyphenyl)methyl]acetamide] the “replication of WNV” value [1] was “did not significantly restrict replication of WNV; also recorded: do not impact WNV replication”, the “SARS-CoV-2 replication (viral titers in culture medium)” value [2] was “suppress SARS-CoV-2 replication” and the “suppression … post-treatment” value [2] was “significant suppression”. For the same compound, the “suppression … pre-treatment” value [2] was “significant suppression”, the “suppression of viral replication” value [2] was “approximately 10 fold” and the EC50 [3] was 4.6 to 22.6 µM. The “type I IFNs … in infected cells” value [4] was “enhance”, the “number … compared to positive control” value [6] was “significant drop” and the “Inhibition of Infection” value [6] was “++”.
